Several values for one entry are separate records, joined by “and”; a condition that tells them apart may be missing. Equal values may be shown once.
What was measured:
CREB-CRTC2 interaction = target: T1, CREB-CRTC2 interaction (Homo sapiens, UniProt P16220); assay: CREB–CRTC2 mammalian two-hybrid assay (GAL4-Luc reporter); type: cell-based; conditions: for Relative Gal4-LUC activity, single replicates: Figure 1f, CREB-CRTC2 two-hybrid assay, DMSO control about 100; for reporter activity of CREB–CRTC2 two-hybrid assay: HEK293T, isolated compound 25 μM
T1 construct: expressed in transfected cells; host or cells: HEK293T
T1 sequence (P16220 whole entry, the tested form may be a part): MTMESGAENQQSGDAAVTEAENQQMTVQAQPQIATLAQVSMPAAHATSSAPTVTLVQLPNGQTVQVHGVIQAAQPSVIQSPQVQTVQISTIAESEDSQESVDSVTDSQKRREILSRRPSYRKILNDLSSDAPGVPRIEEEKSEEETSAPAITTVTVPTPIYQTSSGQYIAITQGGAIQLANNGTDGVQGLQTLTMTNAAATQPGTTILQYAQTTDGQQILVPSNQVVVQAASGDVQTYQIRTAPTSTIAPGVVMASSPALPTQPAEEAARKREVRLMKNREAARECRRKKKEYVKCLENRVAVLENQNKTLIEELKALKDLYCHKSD

tissue mRNA levels = assay: Quantitative PCR of tissue gene expression in treated mice; type: in vivo, mouse; conditions: for Mean Diff. (Veh. vs. treated; head of the quantity not shown, section just before Figure 7h): Met 200mg/kg or APC-20; for Lxra mRNA level: Figure 7g right, Met 200mg/kg, single animals
Experimental: Total RNA from cells and tissues was extracted by Trizol (Invitrogen) and reverse-transcribed into cDNA using the prime script RT reagent kit with gDNA eraser (Takara). The mRNA levels were determined using the SYBR-green PCR kit (Takara) with ABIPRISM 7900HT Sequence detector (ABI) according to the manufacturer’s protocol. The quantitative qPCR primers used in this work are listed in Supplementary Table 1. Ribosomal L32 mRNA levels were used as an internal control.

[1] = Cholesterol, TG, NEFA and glycerol in serum and liver; type: in vivo, mouse; set-up: liver NEFA, Mean 2 (group mean) / Plasma VLDL cholesterol in db/db mice (VLDL-C) / Plasma VLDL cholesterol in db/db mice, group mean / TC in liver_CT2KO (total cholesterol in the liver of CRTC2-KO) / TC in liver_WT (total cholesterol in the liver) / TC in liver_WT, mean / TC in liver_WT, Mean Diff. VEH vs. drug / TC in liver_CRTC2KO, mean / TC in liver_CRTC2KO, Mean Diff. VEH vs. drug: unit not given here; conditions: liver, individual animals, Supp.fig.5d
Experimental: Serum total cholesterol (TC), LDL cholesterol (LDL-C), and HDL cholesterol (HDL-C) levels were detected using commercial kits (Beihua, China), and serum VLDL protein was determined by ELISA (Jiancheng, China).
The plasma TG and NEFA levels were determined using corresponding kits from Beihua (China) and WAKO (Japan), respectively. The TG levels of liver and WAT were tested by TG kit (Applygene, China). The NEFA in the liver and WAT were extracted by chloroform–methanol and then subjected to NEFA assay (WAKO).

Row | SMILES | Relative Gal4-LUC activity, single replicates (CREB-CRTC2 interaction) | further results
1 | O=C(O)/C=C/c1ccc(O)c(O)c1 [P9, (E)-caffeic acid] | 57.5791 and 77.7251 and 73.1602 | –
2 | CC(C)=CCc1cc(/C=C/C(=O)O)ccc1O [P2, drupanin] | 61.0304 and 51.9945 and 58.5603 | reporter activity of CREB–CRTC2 two-hybrid assay (CREB-CRTC2 interaction): significantly inhibited
3 | CC1(C)C=Cc2cc(C=CC(=O)O)ccc2O1 [P11, 2,2-dimethylchromene-6-propenoic acid] | 49.0084 and 29.9945 and 36.8575 | –
4 | COc1ccc(-c2oc3cc(O)c(O)c(O)c3c(=O)c2OC)cc1 [P17, 5,6,7,-trihydroxy-3,4′-dimethoxyflavone] | 79.2706 and 131.512 and 110.674 | –
5 | O=c1c(O)c(-c2ccc(O)c(O)c2)oc2cc(O)cc(O)c12 [P14, quercetin] | 130.988 and 153.776 and 136.769 | –
6 | CC(C)=CCc1cc(/C=C/C(=O)O)cc(C/C=C(\C)CO)c1O [P7, capillartemisin A] | 126.493 and 128.204 and 133.801 | –
7 | CCOC(=O)/C=C/c1ccc(O)c(O)c1 [P10, (E)-caffeic acid ethyl ester] | 123.291 and 121.37 and 118.215 | –
8 | O=C(/C=C/c1ccc(O)cc1)OCc1ccccc1 [P5, (E)-p-coumaric acid benzyl ester] | 49.3178 and 78.5049 and 35.7022 | reporter activity of CREB–CRTC2 two-hybrid assay (CREB-CRTC2 interaction): significantly inhibited
9 | CN(C)C(=N)NC(=N)N [Met] | – | Mean Diff. (Veh. vs. treated; head of the quantity not shown, section just before Figure 7h) (tissue mRNA levels; CRTC2KO mice): -0.1815; Lxra mRNA level (tissue mRNA levels; Crtc2KO mice): 0.8758 and 0.8882 and 0.7033 and 0.8771 and 1.013; Lxra mRNA level (tissue mRNA levels; WT mice): 1.062 and 1.197 and 0.4513 and 1.258 and 0.814; Mean Diff. (Veh. vs. treated; head of the quantity not shown, section just before Figure 7h) (tissue mRNA levels; WT mice): 0.07313; TC in liver_CT2KO (total cholesterol in the liver of CRTC2-KO) ([1]; CRTC2-KO mice): 69.3199 and 58.5752 and 53.7207 and 41.7006 and 49.9498 and 60.0658; TC in liver_WT (total cholesterol in the liver) ([1]; WT mice): 51.5785 and 54.6034 and 57.0386 and 53.1363 and 64.5936 and 53.9126

Now from value to compound, other results behind:

Row | Relative Gal4-LUC activity, single replicates (CREB-CRTC2 interaction) | SMILES | further results
10 | 63.0454 and 51.143 and 49.1354 | O=C1C[C@@H](c2ccccc2)Oc2cc(O)cc(O)c21 [P18, pinocembrin] | –
11 | 44.892 and 54.8815 and 50.4357 | COc1ccc(C2Oc3cc(O)cc(O)c3C(=O)C2O)cc1 (stereo not shown) [P21, dihydrokaempferide] | –
12 | 73.7017 and 114.823 and 172.832 | O=c1c(O)c(-c2ccc(O)cc2)oc2cc(O)cc(O)c12 [P12, kaempferol] | –
13 | 48.4823 and 30.8552 and 26.2372 | COc1ccc(-c2oc3cc(O)c(OC)c(O)c3c(=O)c2O)cc1 [P16, betuletol] | –
14 | 70.496 and 71.1658 and 69.3726 | O=C(O)/C=C/c1ccc(O)cc1 [P1, (E)-p-coumaric acid] | reporter activity of CREB–CRTC2 two-hybrid assay (CREB-CRTC2 interaction): significantly inhibited
15 | 126.299 and 72.1957 and 55.4453 | COc1ccc(-c2oc3cc(O)cc(O)c3c(=O)c2O)cc1 [P13, kaempferide] | –
16 | 91.5539 and 105.994 and 143.876 | COc1c(O)cc2oc(-c3ccc(O)cc3)c(O)c(=O)c2c1O [P15, 6-methoxykaempferol] | –
17 | 126.871 and 59.3858 and 61.7309 | O=C1c2c(O)cc(O)cc2O[C@H](c2ccc(O)cc2)[C@H]1O [P20, aromadendrin] | –

Source: paper PMC8752738, “A propolis-derived small molecule ameliorates metabolic syndrome in obese mice by targeting the CREB/CRTC2 transcriptional complex” (Nature Communications, 2022)
